Results from US20210161937A1, “ACTIVATION OF MITOCHONDRIAL UNCOUPLING AS A THERAPEUTIC INTERVENTION” (The Trustees of Columbia University in the City of New York, priority 2018, published 2021).
Entries after “also recorded” stand apart in the source; their conditions may differ.

Tests used:
[1] = tested on: Drosophila; assay: Lifespan analysis of flies fed drug-supplemented adult medium; assay type: in vivo; details: for median lifespan of control flies versus dose / median lifespan of per^01 null mutants versus dose: varying concentrations fed during adulthood; for lifespan of per^01 mutants / median lifespan of per^01 null mutants versus dose: per^01 null mutants; for lifespan of per^01 mutants: dietary DNP or BHT; for lifespan: wild-type (control) male flies, dietary 2,4 DNP 0.01-0.1 mM or BHT 0.1-1 mM vs ethanol vehicle
Protocol: Drosophila were reared from embryos in low-density bottles with standard medium containing 3.8% glucose, 1.9% sucrose, 3% yeast nutritional flake (Lab Scientific), 6.5% cornmeal, 0.8% agar, supplemented with 1.5% methylparaben mix (10% methylparaben in ethanol) and 1% propionic acid. Adult flies that eclosed within a 24 hour period were collected and transferred to “adult medium” containing 3.8% glucose, 1.9% sucrose, 8% cornmeal, 1% agar, and either 0.01%, 0.5%, 3%, 5%, or 10% yeast extract (Difco) supplemented with 1.5% methylparaben mix and 1% propionic acid for lifespan and biochemical analysis. All percentages given in wt/v except methylparaben mix, propionic acid given in v/v.
All drugs were supplemented into cooled (65° C.) liquid adult medium (containing 3% yeast extract) following preparation to the following final concentration(s): RU486 100μg/mL. RU486 (Cayman Chemical) dissolved in ethanol was supplemented into medium after eclosion at a final concentration of 100 μg/mL (with the exception of DaGS>UAS-Ucp4c and controls, 5 μg/mL) vehicle controls were supplemented with same volume of ethanol alone. Developmental induction was achieved by adding RU486 at concentration of 5 μg/mL, or ethanol vehicle, followed by adults being aged on standard food containing no RU486. For uncoupler feeding 2,4 DNP or BHT purchased from Sigma was dissolved in ethanol fresh at the time of making food and added in to the media, at the indicated concentrations. 2,4 DNP (0.01-0.1 mM) and BHT (0.1-1 mM).
(§1) Newly eclosed flies (˜24 hr) were collected and allowed to mate for 48 hr. Female and male flies were separated and maintained at a density of 30-35 flies per vial in a humidified, temperature-controlled (25° C.) incubator with a 12-hour light-dark cycle. For starvation analysis, flies were aged for 7 days in vials containing indicated diets and then transferred to 1% agar in a humidified, temperature-controlled incubator with 12-hour light-dark cycle at 25° C. Death was scored every 1-2 days, with live flies transferred to fresh vials every 2-3 days. Statistical significance was determined by log-rank analysis.

[2] = tested on: Drosophila; assay: CO2 respiration assay after mitochondrial drug feeding; assay type: in vivo; details: 24 hr feeding; 500 μM Oligomycin, 1 mM rotenone, 5 mM 2,4 DNP, 0.5% stearate
Protocol: Measurement of CO2 production was performed similarly to Yatsenko et al. 2014. Briefly, 10 flies were placed in a sealed pipette tip-capillary respirometer (without anesthesia) containing a small amount of soda-lime. Respirometers were placed capillary side down in dH20 containing 0.1% blue food dye in a sealed TLC chamber placed in a 25° C. incubator. Empty sealed respirometers (containing no flies) were used to subtract blue dye background migration from experimental (fly-containing) samples. Flies were tested for 2 hr between at circadian timepoints, and CO2 production rate was indirectly determined by the amount of liquid movement up the capillary per hour after background subtraction. At least 6 groups of 10 flies were used per genotype for quantification for each condition. For mitochondrial drug feeding experiments, flies were placed on food containing the following compounds for 24 hr: 500 μM Oligomycin, 1 mM rotenone, 5 mM 2,4 DNP, 0.5% stearate, or ethanol vehicle controls.

[3] = tested on: posterior midgut, ISCs/EBs; assay: MitoSOX intestinal staining and esg+ cell quantification in posterior midguts of Esg-GAL4>GFP flies; assay type: in vivo, Drosophila; details: Esg-GAL4>GFP flies fed DNP vs vehicle
Protocol: Flies were anesthetized on ice and intestines were dissected in cold Schneider's Medium (Thermo Fisher Scientific). Intestines were then incubated in 75 nM of TMRE (Thermo Fisher Scientific) in Schneider's Medium, for 10 min at room temperature. Samples were rinsed three times for 30 sec with a solution consisting of 20 nM of TMRE Schneider's Medium. For MitoSOX staining dissected intestines were immersed in 50 μM MitoSOX Red (Invitrogen) in Schneider's Medium for 5 min at room temp, then washed three times for 30 sec in Schneider's Medium. MitoSOX or TMRE samples were quickly mounted in Schneider's Medium containing 1.5 μg/mL Hoechst stain. Intestines were imaged within 20 min on a Ziess LSM800 confocal microscope. Z-stacks spanning the entire posterior midgut were taken. Quantification of TMRE or MitoSOX was performed using ImageJ in which mean fluorescent intensity values were quantified. TMRE foci were quantified using the ImageJ (Schneider et al. 2012) local maxima tool, using identical thresholding for all images. Foci number were normalized to the number of nuclei in the measured field of view. Quantification of MitoSOX output of ISCs/EBs was determined by mean intensity from individual Z-planes with regions of interest defined by esgGFP expression, cell size, and basal location within the intestinal epithelium. Mean intensity of MitoSOX fluorescence levels in all ISCs/EBs were averaged for each individual intestine. A minimum of 9 midguts were used for each genotype or drug treatment.

[4] = tested on: ISC tumors; assay: Notch-RNAi induced ISC tumor formation (Esg^ts>UAS-Notch-RNAi flies); assay type: in vivo, Drosophila
Protocol: as §1
Ese^ts>UAS-Notch-RNAi flies were reared at 18° C. Upon eclosion flies were collected, sexed and placed on media containing 0.05 mM 2,4 DNP, or ethanol vehicle food at 30° C. Time-points of day 0, 8, and 16 days were taken. Intestines were dissected, fixed, and stained as above pHH3 protocol, with anti-GFP (cell signaling) and 1.5 μg/mL Hoechst stain. Quantification of GFP area was performed by using the ImageJ count particle tool in the GFP channel normalized to total area of the posterior midgut that was imaged. 7-13 guts were used for each condition and timepoint.

SMILES | lifespan of per^01 mutants [1] | median lifespan of per^01 null mutants versus dose [1] | lifespan [1] | respiration (relative CO2 production) of control flies [2] | respiration (relative CO2 production) of per^01 mutants [2] | also measured
Cc1cc(C(C)(C)C)c(O)c(C(C)(C)C)c1 [BHT, butylated hydroxytoluene] | did not extend the lifespan of per^01 mutants | no median lifespan increase was observed | extended the lifespan of wild-type male flies in a dose-dependent manner; also recorded: increased lifespan compared to vehicle-fed controls | – | – | median lifespan of control flies versus dose [1]: increased their median lifespan in a dose-dependent manner
O=[N+]([O-])c1ccc(O)c([N+](=O)[O-])c1 [DNP, 2,4-dinitrophenol] | did not extend the lifespan of per^01 mutants | no median lifespan increase was observed | extended the lifespan of wild-type male flies in a dose-dependent manner | increased the respiration of control flies to levels similar to those of per^01 mutants | did not increase the respiration of per^01 mutants | age-related esg+ cell overproliferation (esg+ cell count) [3]: reduced; mitochondrial ROS output of ISC/EB populations (MitoSOX staining in GFP-marked ISCs/EBs) [3]: reduced; mitochondrial ROS output of the entire posterior midgut (MitoSOX staining) [3]: reduced; age-related esg+ cell overproliferation (esg+ cell count) ([3]; listed as 2,4 DNP): fewer esg+cells; mitochondrial ROS output of ISC/EB populations (MitoSOX staining in GFP-marked ISCs/EBs) ([3]; listed as 2,4 DNP): decreased MitoSOX staining specifically in ISCs/EBs; mitochondrial ROS output of the entire posterior midgut (MitoSOX staining) ([3]; listed as 2,4 DNP): decreased Mitosox staining of the entire posterior midgut; median lifespan of control flies versus dose ([1]; listed as 2,4 DNP): increased their median lifespan in a dose-dependent manner; progression of ISC tumors (GFP+ area in the midgut) ([4]; 0.05 mM 2,4 DNP in media vs ethanol vehicle, 30° C., day 0, 8, 16): slowed the progression of ISC tumors; also recorded: delayed tumor formation; lifespan of flies with Notch-induced tumor formation ([4]; dietary 2,4 DNP vs vehicle): extended the shortened lifespan of these animals; also recorded: extended lifespans
CC#C[C@]1(O)CC[C@H]2[C@@H]3CCC4=CC(=O)CCC4=C3[C@@H](c3ccc(N(C)C)cc3)C[C@@]21C [RU486, mifepristone] | – | – | – | – | – | lifespan on RU486 administration (induces constitutive overexpression of UCPs) ([1]; RU486-inducible UCP overexpression (DaGS>UAS-Ucp4C flies)): increased lifespan
CC[C@H]1/C=C/C=C/C[C@@H](C)[C@H](O)[C@@](C)(O)C(=O)[C@@H](C)[C@H](O)[C@@H](C)C(=O)[C@@H](C)[C@H](O)[C@@H](C)/C=C/C(=O)O[C@@H]2[C@H](C)[C@H](CC1)O[C@]1(CC[C@H](C)[C@H](C[C@@H](C)O)O1)[C@H]2C [oligomycin] | – | – | – | inhibited the CO2 output of both control and per^01 animals to a similar degree | inhibited the CO2 output of both control and per^01 animals to a similar degree | –
C=C(C)[C@H]1Cc2c(ccc3c2O[C@@H]2COc4cc(OC)c(OC)cc4[C@@H]2C3=O)O1 [rotenone] | – | – | – | inhibited the CO2 output of both control and per^01 animals to a similar degree | inhibited the CO2 output of both control and per^01 animals to a similar degree | –
CCCCCCCCCCCCCCCCCC(=O)O [stearic acid] | – | – | – | increased the respiration of control flies to levels similar to those of per^01 mutants | did not increase the respiration of per^01 mutants | –
